Measured values from PMC3715890, “A Cyclic Peptide Inhibitor of HIF-1 Heterodimerization That Inhibits Hypoxia Signaling in Cancer Cells” (Journal of the American Chemical Society, 2013).
“Also recorded” adds a separate entry of the source.

How the values were obtained:
[1] = target: T1, His-HIF-1α1–350 with GST-HIF-1β1–474 (Homo sapiens, UniProt Q16665); assay: ELISA of HIF-1 dimerization; format: biochemical; conditions: 10 nM to 500 μM, pH 7.5, 30 min preincubation, room temperature, absorbance 450 nm, read-out: IC50, disruption of HIF-1 dimerization
T1 construct: heterodimerization of His-HIF-1α1–350 with GST-HIF-1β1–474 analyzed by ELISA; made in house; host or cells: E. coli BL21(DE3)
Description: We next probed the effect of cyclo-CLLFVY on the interaction of HIF-1α with HIF-1β in vitro. […] Unfortunately, the positively charged Tat-tag of P1 is incompatible with EMSA (interferes with the bandshift of DNA). […] To determine the HIF-1-specificity of cyclo-CLLFVY, we assessed its ability to disrupt HIF-2 dimerization by ELISA. Recombinant His-HIF-2α1–351 was produced and purified, and shown to form functional heterodimers with GST-HIF-1β1–474 by EMSA (Figure S5B).
HIF-1β1-474, *please note that isoform 3 of HIF-1β was used). The standard protocol for protein expression was followed. Briefly, a 1 % culture in LB was incubated at 37 °C with shaking until OD600 of 0.6 was reached. 0.1 mM IPTG was added and the liquid culture incubated with shaking at 18 °C overnight. Cell pellets were suspended in MHW buffer9 (approximately 4 ml buffer per 1 g cell pellet). Lysozyme (100 µg/ml) was added to the lysate and the solution was incubated with shaking for 20 min at 5 °C. […]
glycerol) was added to individual wells of a Pierce Ni2+-coated 96-well plate (Thermo Scientific, catalogue no. […] The stated quantity of inhibitor (P1 or P2) was added as a solution in 100 µL of buffer to the desired wells, and the plate incubated at room temperature for 30 minutes. […]

MCF-7 cells [2] = assay: CyQUANT cell proliferation assay, MCF-7; format: cell-based; conditions: 100 μM, 72 h
Procedure: Sulforhodamine B cytotoxicity assay […]
incubated in hypoxia for 24h.
O.D. value of the experimental set.
CyQUANT cell proliferation assay
The cells were incubated for 5 hours and then treated with Tamoxifen or P1. After 24, 48 or 72 hours, the media was […]
C35006) following the manufacturers instructions. Fluorescence measurements were […]
Workman, P.; Ashcroft, M. Cancer Res 2005, 65, 4918.

MCF-7 cells [3] = conditions: MCF-7, 100 μM, hypoxia 24 h
U2OS cells = conditions: 100 μM, hypoxia 24 h
HIF-1 = conditions: cited from earlier work
Description: (§1) Inhibition of HIF-1 has long been known to hold much potential for cancer therapy;[14] there are multiple possible points for therapeutic intervention in the hypoxia response network, and molecules that inhibit various components of this diverse pathway have been reported,[15]−[22] but the absolute requirement for the dimerization of HIF-1α and HIF-1β for DNA binding and transcription activity of the HIF-1 complex makes this protein–protein interaction a seemingly optimal point of interception. Several high-throughput screens have been conducted in the effort to identify HIF-1 inhibitors,[15], ...

HIF-2 = conditions: cited from earlier work
Description: as §1

HIF-2α PAS-B = conditions: cited from earlier work
Description: (§2) A homology model of HIF-1α PAS-B mapped onto the NMR s ...

PAS-B domain of HIF-1α = target: T2, PAS-B domain of HIF-1α (Homo sapiens, UniProt Q16665); conditions: cited from earlier work
T2 construct: Per-ARNT-Sim-B (PAS-B, amino acids 235–350) domains; His (N); made in house; host or cells: E. coli BL21(DE3)
Description: as §2

Row | Compound | IC50 [1] | viability / proliferation of MCF-7 cells (MCF-7 cells [2]) | SRB cytotoxicity (MCF-7 cells [3]) | SRB cytotoxicity (U2OS cells) | inhibition of HIF-1 (HIF-1) | inhibition of HIF-2 (HIF-2) | targeting of PAS-B domain of HIF-2α (HIF-2α PAS-B) | targeting of PAS-B domain of HIF-1α (PAS-B domain of HIF-1α)
1 | CC(C)C[C@@H]1NC(=O)[C@H](CSSC[C@H](N)C(=O)NCC(=O)N[C@@H](CCCNC(=N)N)C(=O)N[C@@H](CCCCN)C(=O)N[C@@H](CCCCN)C(=O)N[C@@H](CCCNC(=N)N)C(=O)N[C@@H](CCCNC(=N)N)C(=O)N[C@@H](CCC(N)=O)C(=O)N[C@@H](CCCNC(=N)N)C(=O)N[C@@H](CCCNC(=N)N)C(=O)N[C@@H](CCCNC(=N)N)C(=O)N2CCC[C@H]2C(=O)N2CCC[C@H]2C(=O)N[C@@H](CCC(N)=O)C(=O)O)NC(=O)[C@H](Cc2ccc(O)cc2)NC(=O)[C@H](C(C)C)NC(=O)[C@H](Cc2ccccc2)NC(=O)[C@H](CC(C)C)NC1=O [P1, Tat-cyclo-CLLFVY] | 1300 nM | did not affect the viability of MCF-7 cells; also recorded: no effect on MCF-7 proliferation | not cytotoxic | not cytotoxic | – | – | – | –
2 | acriflavine | – | – | – | – | nonselectively inhibits both HIF-1 and HIF-2 | nonselectively inhibits both HIF-1 and HIF-2 | targeted | targeted
